# Reference: patent US20060263805A1, “Diagnosing and treating potassium channel defects” (priority 2005, published 2006)
# How the values were obtained:
# Fs1524 SUR2A NBD2 = test: NBD2 ATPase activity by spectrophotometry, Fs1524 mutant; type: biochemical
# Protocol: (§1) Cloning of KATP channel subunits and purification of SUR2A ATPase. cDNAs encoding SUR2A and Kir6.2 were subcloned into the expression vector pcDNA3.1. PCR-based site-directed mutagenesis was carried out using primers incorporating identified mutations (QuickChange, Stratagene). The constructs were sequenced to verify mutations and rule out additional changes in sequence. […]
# (§2) Enzymology and nucleotide binding. ATPase activity of purified NBD2 was measured in the presence of Mg^2+, as Pi generation detected spectrophotometrically at 360 nm with the EnzChek Phosphate Assay Kit or by monitoring conversion of [γ-^32P]ATP using thin layer chromatography and quantified it with Phosphorlmager and ImageQuant software (Molecular Dynamics) (Zingman et al., 2002, supra). […] Binding of fluorescent ATP analog TNP-ATP to purified NBD2 constructs was determined by fluorescence spectrophotometry (QuantaMaster, PTI) at excitation and emission wavelengths of 410 nm and 540 nm, respectively. […]
# (§3) The ADP dissociation constant, KADP, was determined from spectrometric measurement of steady-state NBD2 ATPase activity at [ADP]=O with variable [ATP]. […]
# A1513T SUR2A NBD2 = test: NBD2 ATPase activity by spectrophotometry, A1513T mutant; type: biochemical
# Protocol: as §1, §2, §3
# wild-type SUR2A NBD2 = test: NBD2 ATPase activity by spectrophotometry, wild-type; type: biochemical
# Protocol: as §1, §2, §3
# [1] = system: hypertensive wild-type mice; test: Dobutamine challenge, left ventricular catheterization, hypertensive wild-type; type: in vivo; conditions: dobutamine 15 mg/kg i.p.
# Protocol: Left Ventricular Catheterization. Invasive left ventricular pressure recordings were measured in vivo by a 1.4-Fr micropressure catheter (SPR-671, Millar Instruments) following carotid arterial cannulation and advancement across the aortic valve under 2,2,2 tri-bromoethanol ([…] i.p.; Sigma) anesthesia, before and after dobutamine (15 mg/kg i.p.) challenge. Left ventricular developed pressure was defined as the absolute difference between the maximum and minimum left ventricular pressure (mm Hg) and the relaxation time as the time from maximal rate of pressure decay to minimum left ventricular pressure (ms).
# [2] = system: patient with atrial fibrillation; type: in vivo, human; conditions: for response of atrial fibrillation to antiarrhythmic medical therapy: patient
# wild-type hearts [3] = test: Coronary flow in isolated perfused wild-type hearts; design: species or system mice
# Kir6.2 knockout mice = test: Telemetric rhythm monitoring under isoproterenol challenge, KATP channel knockout mice; type: in vivo; conditions: isoproterenol 10 mg/kg injection; within 20 min
# Source text: (§4) KATP channel knockout mice were backcrossed for 5 generations to a C57BL/6 background. With approval of the Mayo Foundation Institutional Animal Care and Use Committee, the heart rate and electrocardiogram were continuously monitored in the conscious state. To this end, KATP channel knockout or 8- to 12-week old, age- and sex-matched C57BL/6 wild-type mice were implanted with telemetry devices (Data Sciences International) and leads tunneled subcutaneously under isoflurane anesthesia. Following a 2-week recovery from surgery, serial signals were acquired at 2 kHz before and during isoproterenol challenge.
# wild-type hearts [4] = test: Monophasic action potentials in Langendorff-perfused wild-type hearts under isoproterenol; design: species or system mice
# Protocol: (§5) In situ aortic cannulation and Langendorff perfusion. Mice were anesthetized with intraperitoneal injection of 2,2,2 tri-bromoethanol (0.375 mg/g body weight; Sigma), intubated, ventilated, and the aortic root cannulated in situ (Hodgson et al., 2003, supra). Perfusion was sustained ex vivo on a Langendorff system at 90 cm H2O, with 37° C.-prewarmed and 100% O2-bubbled Tyrode solution (in mM: NaCl 137, KCl 5.4, CaCl2 2, MgCl2 1, HEPES 10, glucose 10; pH 7.4 with NaOH). Following 10-min equilibration, KCl was reduced to 2.7 mM and MgCl2 to 0.35 mM, with the atrioventricular node cauterized to allow ventricular pacing. Coronary flow was monitored with a T106 blood flow meter (Transonic Systems).
# (§6) Electrogram and monophasic action potential recordings. Orthogonal electrogram signals were simultaneously recorded using four silver-silver chloride electrodes surrounding the perfused heart in a simulated “Einthoven” configuration, and signals amplified by an electrocardiographic amplifier (Gould Electronics). A catheter (NuMed) was placed in the left ventricular endocardium to pace the heart at twice diastolic threshold intensity with 2 ms pulse width and 100 ms cycle length using a pulse generator (A310 Accupulser, World Precision Instruments). Monophasic action potentials were continuously recorded from the left ventricle by a probe (EP Technologies) positioned on the epicardial surface, and amplified signals (IsoDam, World Precision Instruments) acquired at 11.8 kHz and stored for off-line digital analysis.
# wild-type mice = test: Telemetric rhythm monitoring under isoproterenol challenge, wild-type mice; type: in vivo; conditions: isoproterenol 10 mg/kg injection
# Source text: as §4
# Kir6.2-KO hearts = test: Monophasic action potentials in Langendorff-perfused Kir6.2-KO hearts under isoproterenol; design: species or system mice
# Source text: Kir6.2-knockout mice. Mice deficient in KATP channels were generated by targeted disruption of the KCNJ11 gene, which encodes the pore-forming Kir6.2 subunit of the channel complex (Miki et al., 1998, supra). Kir6.2-knockout mice were backcrossed for five generations into a C57BL/6 background. This investigation was approved by the Mayo Clinic Institutional Animal Care and Use Committee.
# as §5, §6
# Kir6.1-KO mice = conditions: mouse, in vivo, sc
# Source text: Kir6.1-deficient Mice. Mice deficient in vascular KATP channels (Kir6.1-KO), while maintaining normal KATP channel current in non-vascular tissues including the myocardium, were generated by targeted disruption of the KCNJ8 gene encoding the pore-forming Kir6.1 subunit and backcrossed for more than 5 generations to a C57BL/6 background (Miki et al., 2002, Nat. Med., 8:466-72). Six to eight week-old Kir6.1-KO mice were compared to age and sex matched wild-type littermate controls or to mice lacking non-vascular, including myocardial, KATP channels generated by targeted disruption of the KCNJ11 gene that encodes the Kir6.2 channel pore (Zingman et al., 2002, PNAS USA, 99:13278-83; Suzuki et al., 2001, Circ. Res., 88:570-7). […] Comparisons between groups were performed by analysis of variance, Student's t-tests, non-parametric or log-rank tests, using JMP software (SAS). Data are presented as mean±SEM; n refers to the sample size. P<0.05 was predetermined. All chemicals were obtained from Sigma. The Mayo Foundation Institutional Animal Care and Use Committee approved all experimental protocols.
# Endotoxic Shock. The shock state of severe sepsis was modeled by administration of Escherichia coli LPS serotype 0111:B4 (Natanson et al., 1989, J. Exp. Med., 169:823-32; Suffredini et al., 1989, N. Engl. J. Med., 321:280-7). […]
# Kir6.1-KO hearts = test: Coronary flow in isolated perfused Kir6.1-KO hearts; design: species or system mice
# Protocol: Coronary Flow. The aorta was cannulated in situ. […] Coronary flow was continuously measured with a T106 small animal blood flow meter (Transonic Systems Incorporated). The effect of recombinant murine TNFα was assessed at least 20 min after flow stabilization. […] Maximum vasodilation was defined as the peak increase in coronary flow observed in the wild-type in response to 10 μl of 1 mM adenosine after at least 10 min of return to baseline flow on TNFα washout.
# [5] = system: hypertensive Kir6.2-KO mice; conditions: verapamil 250 μg orally daily
# Source text: KATP Channel Knockout and Experimental Hypertension. KATP channel-deficient mice (Kir6.2-KO) were generated by targeted disruption of the KCNJ11 gene (Miki et al., 1998, PNAS USA, 95:10402-6) which encodes the pore-forming Kir6.2 channel subunit of myocardial but not renal or vascular KATP channels, and backcrossed for 5 generations to a C57BL/6 background. With approval of the Mayo Foundation Institutional Animal Care and Use Committee, Kir6.2-KO or 8- to 12-week old, age-matched, C57BL/6 male wild-type mice had left nephrectomy through a retroperitoneal flank excision under isoflurane-anesthesia to reduce clearance and mineralocorticoid-hypertension was induced for 21 days by subcutaneous implantation of a 50 mg 21-day-release deoxycorticosterone-acetate pellet (Innovative Research of America) and drinking water supplementation with 1% NaCl/0.2% KCl. Control wild-type or Kir6.2-KO mice underwent nephrectomy alone. Water or salt water intake was measured weekly. […] Following one-week of acclimatization, blood pressure was measured by automated tail-cuff recording (Columbus Instruments) in awake restrained wild-type and Kir6.2-KO mice, 2 weeks post-nephrectomy with or without mineralocorticoid/salt loading. Systolic blood pressure was digitally derived from ten sequential recordings.
# Gross Pathology and Tissue Fibrosis. At 21 days, whole heart, left ventricle including septum, kidney and lungs were removed, rinsed, blotted dry, and weighed ex vivo. Lung samples were dried at 65° C. for 48 h and reweighed with pulmonary congestion assessed by comparing wet to dry lung weight ratios. Interstitial fibrosis was quantified by computer analysis (MetaMorph, Visitron Universal Imaging) of 0.5-μm thick, paraffin-embedded, Masson's trichrome-stained sections. Kidney or left ventricular collagen content was determined by assaying hydroxyproline content after overnight hydrolysis by 12 N HCl with samples run in duplicate against standard hydroxyproline (Sigma). All quantification was performed blinded to the sample origin.
# Isolated Cardiomyocytes, Immunohistochemistry and Calcium Imaging. […]
# [6] = system: hypertensive wild-type mice; test: Mineralocorticoid/salt hypertension with pharmacologic intervention, wild-type mice; type: in vivo; conditions: verapamil 250 μg orally daily
# Protocol: KATP Channel Knockout and Experimental Hypertension. KATP channel-deficient mice (Kir6.2-KO) were generated by targeted disruption of the KCNJ11 gene (Miki et al., 1998, PNAS USA, 95:10402-6) which encodes the pore-forming Kir6.2 channel subunit of myocardial but not renal or vascular KATP channels, and backcrossed for 5 generations to a C57BL/6 background. […] Water or salt water intake was measured weekly. All mice were given standard rodent chow, had similar awake non-fasting blood glucose levels measured by tail sampling (Table 2; OneTouch Ultra, Lifescan), were housed individually with a 12 h day/night cycle, and were observed daily until termination of the study at day 21. Following one-week of acclimatization, blood pressure was measured by automated tail-cuff recording (Columbus Instruments) in awake restrained wild-type and Kir6.2-KO mice, 2 weeks post-nephrectomy with or without mineralocorticoid/salt loading. […]
# Gross Pathology and Tissue Fibrosis. […] Lung samples were dried at 65° C. for 48 h and reweighed with pulmonary congestion assessed by comparing wet to dry lung weight ratios. Interstitial fibrosis was quantified by computer analysis (MetaMorph, Visitron Universal Imaging) of 0.5-μm thick, paraffin-embedded, Masson's trichrome-stained sections. […] All quantification was performed blinded to the sample origin. […]
# [7] = system: wild-type and mutated SUR2A NBD2; test: TNP-ATP binding to purified NBD2 constructs (fluorescence, Scatchard); conditions: Scatchard analysis
# Protocol: Enzymology and nucleotide binding. ATPase activity of purified NBD2 was measured in the presence of Mg^2+, as Pi generation detected spectrophotometrically at 360 nm with the EnzChek Phosphate Assay Kit or by monitoring conversion of [γ-^32P]ATP using thin layer chromatography and quantified it with Phosphorlmager and ImageQuant software (Molecular Dynamics) (Zingman et al., 2002, supra). The initial kinetics of ATP hydrolysis was captured by stopped-flow spectroscopy with instantaneous mixing of purified polypeptide and substrate on an SX. 18MV spectrometer (Applied Photophysics). Binding of fluorescent ATP analog TNP-ATP to purified NBD2 constructs was determined by fluorescence spectrophotometry (QuantaMaster, PTI) at excitation and emission wavelengths of 410 nm and 540 nm, respectively.
# [8] = ADP-dependent inhibition at 2 mM ATP, read-out: ADP-dissociation constant (KADP)
# [9] = 0 ADP, creatine kinase 0.01 U/ml, creatine phosphate 5 mM
compound,measurement,setting,value
Nc1ncnc2c1ncn2[C@@H]1O[C@H](COP(=O)(O)OP(=O)(O)O)[C@@H](O)[C@H]1O [ADP],Kd,Fs1524 SUR2A NBD2; [8],11 ± 1.5 µM
same,Kd,A1513T SUR2A NBD2; [8],24.9 ± 5.6 µM
same,Kd,wild-type SUR2A NBD2; [8],8.6 ± 0.3 µM
Nc1ncnc2c1ncn2[C@@H]1O[C@H](COP(=O)(O)OP(=O)(O)OP(=O)(O)O)[C@@H](O)[C@H]1O [ATP],Michaelis-Menten constant of NBD2 ATPase (ATP dependence),Fs1524 SUR2A NBD2; [9],0.084 ± 0.010 mM
same,Michaelis-Menten constant of NBD2 ATPase (ATP dependence),A1513T SUR2A NBD2; [9],0.094 ± 0.013 mM
same,Michaelis-Menten constant of NBD2 ATPase (ATP dependence),wild-type SUR2A NBD2; [9],0.11 ± 0.02 mM
CC(CCc1ccc(O)cc1)NCCc1ccc(O)c(O)c1 (stereo not drawn) [dobutamine],response to inotropic challenge,[1],normal contractile response to the same stress challenge with no death
O=C(NCC1CCCCN1)c1cc(OCC(F)(F)F)ccc1OCC(F)(F)F (stereo not drawn) [flecainide],response of atrial fibrillation to antiarrhythmic medical therapy,[2],refractory and/or intolerant
COc1ccc(Cl)cc1C(=O)NCCc1ccc(S(=O)(=O)NC(=O)NC2CCCCC2)cc1 [glyburide],TNFα-induced increase in coronary flow after glyburide pre-treatment,wild-type hearts [3]; 10 min perfusion of 10 μM glyburide before TNFα,not observed
CC(C)NCC(O)c1ccc(O)c(O)c1 (stereo not drawn) [isoproterenol],knockouts with atrial fibrillation,Kir6.2 knockout mice,70%
same,hearts with isoproterenol-induced afterdepolarizations complicated by triggered activity,wild-type hearts [4]; 1 out of 6,16%
same,monophasic action potential duration at 90% repolarization (APD90) after isoproterenol,"wild-type hearts [4]; 10-min perfusion, isoproterenol 1 mM, before 82±2",74 ± 2 ms
same,"early afterdepolarizations, share of action potentials examined",wild-type hearts [4]; isoproterenol challenge,1±1%
same,atrial fibrillation under isoproterenol infusion,"[2]; patient with ABCC9 mutation, before ablation",provoked
same,cardiac rhythm after isoproterenol,wild-type mice,maintained normal sinus rhythm
same,hearts with isoproterenol-induced afterdepolarizations complicated by triggered activity,"Kir6.2-KO hearts; Kir6.2-KO hearts, 6 out of 8",75%
same,monophasic action potential duration at 90% repolarization (APD90) after isoproterenol,"Kir6.2-KO hearts; Kir6.2-KO hearts, 10-min perfusion, isoproterenol 1 mM, before 79±3",80 ± 3 ms
same,"early afterdepolarizations, share of action potentials examined","Kir6.2-KO hearts; Kir6.2-KO hearts, isoproterenol challenge",97±2%
same,"fold higher risk of premature ventricular complexes, Kir6.2-KO versus wild-type",Kir6.2-KO hearts; isoproterenol challenge,16 fold
CC(C)NCC(O)c1ccc(NS(C)(=O)=O)cc1 (stereo not drawn) [sotalol],complication of drug use,"[2]; human, in vivo",symptomatic bradycardia
same,response of atrial fibrillation to antiarrhythmic medical therapy,[2],refractory and/or intolerant
COc1ccc(CCN(C)CCCC(C#N)(c2ccc(OC)c(OC)c2)C(C)C)cc1OC (stereo not drawn) [verapamil],median survival time,Kir6.1-KO mice,24 h
same,coronary vasodilation in TNFα-challenged hearts,Kir6.1-KO hearts; 1 μM verapamil after TNFα,reinstated coronary vasodilation
same,mortality,[5]; hypertensive Kir6.2-KO,prevention of all mortality
same,syndrome of heart failure including lung congestion,[5]; hypertensive Kir6.2-KO,averted
same,degree of systemic hypertension,[5],did not affect
same,left ventricular hypertrophy,[6],not affected
TNFα,coronary vasodilation (coronary flow) under TNFα,wild-type hearts [3]; recombinant TNFα 4 μg/l,induced maximal coronary vasodilation
same,TNFα-induced increase in coronary flow,"Kir6.1-KO hearts; 4, 8 or 20 μg/l TNFα",not observed
TNP-ATP,"binding affinity of TNP-ATP, wild-type versus mutated NBD2",[7],similar
